In ChEMBL document CHEMBL3244030, “2-Methoxyphenylethanolamines, potential beta-adrenergic blocking agents” (J Med Chem, 1978):
The source made the active and inactive calls. No cut-off for these calls is given here.

Columns and labels:
[1] = biological target: Beta-1 adrenergic receptor (Cavia porcellus, UniProt B0FL73); assay: Antagonist activity at beta1 adrenoceptor in guinea pig atrium assessed as inhibition of isoproterenol-induced response after 20 mins; parameters: species or system Cardiac atrium; conditions: read-out: pA2 (converted)
Beta-1 adrenergic receptor, sequence (B0FL73 whole entry): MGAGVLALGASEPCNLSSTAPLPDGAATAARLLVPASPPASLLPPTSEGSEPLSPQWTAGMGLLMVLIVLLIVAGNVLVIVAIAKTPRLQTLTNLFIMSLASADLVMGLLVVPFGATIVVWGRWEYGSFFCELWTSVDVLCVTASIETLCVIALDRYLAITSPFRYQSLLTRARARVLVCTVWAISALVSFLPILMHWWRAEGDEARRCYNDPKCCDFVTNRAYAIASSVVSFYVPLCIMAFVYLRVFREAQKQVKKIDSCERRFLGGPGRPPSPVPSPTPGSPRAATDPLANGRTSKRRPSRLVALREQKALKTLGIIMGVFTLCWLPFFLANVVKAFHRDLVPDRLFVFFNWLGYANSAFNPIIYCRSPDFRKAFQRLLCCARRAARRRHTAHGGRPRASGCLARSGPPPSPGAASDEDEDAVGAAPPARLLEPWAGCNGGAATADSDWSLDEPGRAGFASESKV

[2] = biological target: Beta-2 adrenergic receptor (Cavia porcellus, UniProt Q8K4Z4); assay: Antagonist activity at beta2 adrenoceptor in guinea pig trachea assessed as inhibition of isoproterenol-induced response after 20 mins; conditions: read-out: pA2 (converted)
Beta-2 adrenergic receptor, sequence (Q8K4Z4 whole entry): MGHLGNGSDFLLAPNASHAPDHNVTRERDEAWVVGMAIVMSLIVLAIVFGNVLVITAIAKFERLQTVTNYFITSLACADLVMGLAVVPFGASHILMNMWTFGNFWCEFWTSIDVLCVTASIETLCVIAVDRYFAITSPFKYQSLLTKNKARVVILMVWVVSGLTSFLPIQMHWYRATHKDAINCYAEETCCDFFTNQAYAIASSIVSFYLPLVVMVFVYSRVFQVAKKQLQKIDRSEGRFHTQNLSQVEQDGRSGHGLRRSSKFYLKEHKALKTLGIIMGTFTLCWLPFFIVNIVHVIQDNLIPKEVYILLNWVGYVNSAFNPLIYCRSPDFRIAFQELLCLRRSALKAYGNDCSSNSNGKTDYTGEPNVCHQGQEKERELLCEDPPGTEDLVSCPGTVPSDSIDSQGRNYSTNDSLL

[3] = biological target: Beta-1 adrenergic receptor (Cavia porcellus) (UniProt B0FL73); assay: Competitive inhibition of beta1 adrenoceptor in guinea pig atrium assessed as inhibition of isoproterenol-induced response after 20 mins by Schild plot analysis; conditions: Cardiac atrium
Beta-1 adrenergic receptor (Cavia porcellus), sequence (B0FL73 1-467): as the sequence (B0FL73 whole entry) above

[4] = biological target: Beta-1 adrenergic receptor (Cavia porcellus) (UniProt B0FL73); assay: Intrinsic activity at beta1 adrenoceptor in guinea pig atrium relative to isoproterenol; conditions: Cardiac atrium
[5] = biological target: Beta-2 adrenergic receptor (Cavia porcellus) (UniProt Q8K4Z4); assay: Intrinsic activity at beta2 adrenoceptor in guinea pig atrium relative to isoproterenol; conditions: Cardiac atrium
Beta-2 adrenergic receptor (Cavia porcellus), sequence (Q8K4Z4 whole entry, looked up): as the sequence (Q8K4Z4 whole entry) above

[6] = species on record: Cavia porcellus; assay: Selectivity ratio for beta1 adrenoceptor in guinea pig atrium over beta2 adrenoceptor in guinea pig trachea; format: tissue-based; conditions: Cardiac atrium
[7] = biological target: Beta-1 adrenergic receptor (Cavia porcellus) (UniProt B0FL73); assay: Partial agonist activity at beta1 adrenoceptor in guinea pig atrium; conditions: Cardiac atrium
[8] = biological target: Beta-2 adrenergic receptor (Cavia porcellus) (UniProt Q8K4Z4); assay: Partial agonist at beta2 adrenoceptor in guinea pig trachea

Row | SMILES | Kb [1] | Kb [2] | inhibition [3] | Intrinsic activity [4] | Intrinsic activity [5] | Selectivity ratio [6] | pD2 [7] | pD2 [8]
1 | COc1ccc(Br)cc1C(O)CNC(C)C (stereo not given) | 1480 nM | 933 nM |  |  |  |  |  | 
2 | COc1ccc(C)cc1C(O)CNC(C)C (stereo not given) | 2510 nM | 2510 nM |  |  |  |  |  | 
3 | COc1cc(C)ccc1C(O)CNC(C)C (stereo not given) | 10 nM | 398 nM | Active | 0.2 | 0.2 | 40 |  | 
4 | CC(C)NCC(O)c1ccc(Br)cc1 (stereo not given) | 158 nM | 200 nM |  |  |  |  |  | 
5 | COc1ccccc1C(O)CNC(C)C (stereo not given) | 617 nM | 120 nM |  | 0.5 | 0.5 |  | 6.3 | 6.8
6 | Cc1ccc(C(O)CNC(C)C)cc1 (stereo not given) | 126 nM | 316 nM |  |  |  |  |  | 
7 | CC(C)NCC(O)c1cccc(Br)c1 (stereo not given) | 631 nM | 1260 nM |  |  |  |  |  | 
8 | Cc1cccc(C(O)CNC(C)C)c1 (stereo not given) | 794 nM | 2000 nM |  |  |  |  |  | 
9 | COc1cc(Br)ccc1C(O)CNC(C)C (stereo not given) | 5.75 nM | 13.5 nM | Active | 0.2 | 0.2 | 2 |  | 
